The source made the active and inactive calls.
How the values were obtained:
[1] = luciferase reporter signal suppression in cells – H4 neuroglioma cells, luminescence, dose response (AID 1990); format: functional, cell-based
BJ [2] = assay: BJ-TERT fibroblast viability loss – cell-based, RAS-independent, luminescence, dose response (AID 1933); format: functional; conditions: Homo sapiens
[3] = Luminescence Cell-Based Dose Response HTS to Identify Inhibitors of 5'UTR Stem-Loop Driven Prion Protein mRNA Translation in H4 Neuroglioblastoma Cells. [Related pubchem assays: 1827 (Project Summary), 1813 (Primary HTS)]; format: functional
[4] = alpha-synuclein stem-loop luciferase translation blockers – H4 neuroglioma cells, luminescence, confirmation (AID 1988); format: functional, cell-based
BJ [5] = assay: cells; format: functional, cell-based; conditions: Homo sapiens
[6] = viability of PTEN-deleted HCT116 cells – cell-based, HCT116 PTEN knockout, dose response (AID 1047); format: functional;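 also: HCT116 colon tumor cells with PTEN knocked out; cells exposed to compound for 60 hours before readout; potency for loss of cell viability measured by luminescence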
[7] = viability of HCT116 lacking mutant beta-catenin – cell-based, human colon tumor, dose response (AID 1045); format: functional;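 also: HCT116 colon tumor cells with beta catenin knocked out; cells exposed to compound for 60 hours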
BJ [8] = assay: BJ-TERT-LT-ST fibroblast viability loss – cell-based, RAS-independent, luminescence, dose response (AID 1935); format: functional; conditions: Homo sapiens;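 also: BJ fibroblasts immortalized with TERT plus LT and ST oncogenes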
[9] = DRD fibroblast viability loss – cell-based, non-viral oncogenic, luminescence, dose response (AID 1934); format: functional; conditions: Homo sapiens
[10] = THP-1 cell cytotoxicity, dose response, cytotoxicity control for non-replicating M. tuberculosis project (AID 489025); format: functional
[11] = HepG2 cell cytotoxicity, dose response, cytotoxicity control for non-replicating M. tuberculosis project (AID 489018); format: functional; conditions: Mycobacterium tuberculosis
[12] = Vero E6 cell cytotoxicity, dose response, cytotoxicity control for non-replicating M. tuberculosis project, secondary assay (AID 492998); format: functional, VeroE6; conditions: Vero C1008
[13] = target: T1, Heat shock factor protein 1 (Mus musculus, UniProt P38532); assay: enhancement of HSF1-driven luciferase signal – cell-based, NIH3T3, luminescence, dose retest, confirmation (AID 435004); format: functional;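 also: stress induced by proteasome inhibitor MG132 added 30 min after compound; luciferase reporter driven by HSF1 response element in NIH3T3 cells; actives raise luminescence as potentiators of the MG132 stress response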
T1 sequence (P38532 whole entry): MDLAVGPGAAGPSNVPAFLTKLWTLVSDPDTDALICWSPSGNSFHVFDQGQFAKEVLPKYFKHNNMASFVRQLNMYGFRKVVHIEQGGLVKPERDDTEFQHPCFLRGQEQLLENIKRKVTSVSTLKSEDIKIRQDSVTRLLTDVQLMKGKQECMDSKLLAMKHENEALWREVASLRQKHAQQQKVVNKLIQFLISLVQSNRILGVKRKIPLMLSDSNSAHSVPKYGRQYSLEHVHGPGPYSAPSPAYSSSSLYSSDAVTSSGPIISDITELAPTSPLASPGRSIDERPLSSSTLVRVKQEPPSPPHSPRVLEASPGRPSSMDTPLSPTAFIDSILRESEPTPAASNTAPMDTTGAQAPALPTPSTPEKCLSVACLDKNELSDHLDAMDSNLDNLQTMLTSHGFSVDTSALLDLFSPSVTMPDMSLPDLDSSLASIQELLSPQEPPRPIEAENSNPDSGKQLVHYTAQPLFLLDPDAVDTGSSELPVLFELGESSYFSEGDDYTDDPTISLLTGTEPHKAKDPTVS

cells = format: functional
[14] = target: Heat shock protein HSP 90-alpha (Homo sapiens, UniProt P07900); format: functional, organism-based
BJ [15] = assay: growth inhibition of engineered Ras-driven BJ cells – cell-based, alamar blue fluorescence, cherrypicked samples, dose response (AID 2631); format: functional; conditions: Homo sapiens;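 also: confirmatory dose-response assay in RAS-dependent BJ fibroblasts engineered with TERT, LT and ST, with cytotoxicity read by fluorescence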
INS1 = assay: INS-1E survival protection against cytokine death – cell-based, luminescence, retest, dose response (AID 449756); format: functional; conditions: Rattus norvegicus;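 also: cell death triggered by IL-1 beta plus TNF-alpha plus IFN-gamma mixture; protective hits raise ATP signal compared with cytokine alone wells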
[16] = reduction of Shn3 3'UTR-driven luciferase in osteoblasts – cell-based, Clone20 osteoblasts, firefly luciferase, cherry-picked, dose response (AID 624132); format: functional;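 also: firefly luciferase luminescence from reporter carrying the Shn3 3'UTR in osteoblasts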
[17] = loss of viability in HepG2 cells – cell-based, CellTiter-Glo, cherry-picked, cytotoxicity control for Shn3 inhibitor project, dose response (AID 624134); format: functional
[18] = non-specific 3'UTR reporter inhibition in Clone20-Shn3RL – cell-based, Renilla luciferase, cherry-picked, counter-screen for Shn3 inhibitor project, dose response (AID 624133); format: functional
Cytochrome P450 2D6 = Cytochrome P450 2D6 (Homo sapiens, UniProt P10635);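 also: CYP2D6 member of a cytochrome P450 panel assay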
Sequence of Cytochrome P450 2D6 (P10635 whole entry): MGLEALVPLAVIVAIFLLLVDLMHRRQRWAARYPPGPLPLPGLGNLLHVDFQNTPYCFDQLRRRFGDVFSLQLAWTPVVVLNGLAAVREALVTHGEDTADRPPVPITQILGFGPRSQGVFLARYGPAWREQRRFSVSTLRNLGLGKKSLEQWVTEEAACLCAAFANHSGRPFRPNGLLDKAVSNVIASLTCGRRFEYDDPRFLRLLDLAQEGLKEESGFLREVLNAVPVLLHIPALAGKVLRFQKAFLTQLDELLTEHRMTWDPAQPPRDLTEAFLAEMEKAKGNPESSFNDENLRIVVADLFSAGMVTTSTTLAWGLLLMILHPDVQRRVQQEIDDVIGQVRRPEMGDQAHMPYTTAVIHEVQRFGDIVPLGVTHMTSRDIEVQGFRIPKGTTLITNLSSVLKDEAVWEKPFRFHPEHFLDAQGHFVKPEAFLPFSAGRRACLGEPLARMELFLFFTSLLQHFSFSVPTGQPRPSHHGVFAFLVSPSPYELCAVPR

Cytochrome P450 3A4 = Cytochrome P450 3A4 (Homo sapiens, UniProt P08684);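 also: CYP3A4 tested as one member of a cytochrome P450 panel screen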
Sequence of Cytochrome P450 3A4 (P08684 whole entry): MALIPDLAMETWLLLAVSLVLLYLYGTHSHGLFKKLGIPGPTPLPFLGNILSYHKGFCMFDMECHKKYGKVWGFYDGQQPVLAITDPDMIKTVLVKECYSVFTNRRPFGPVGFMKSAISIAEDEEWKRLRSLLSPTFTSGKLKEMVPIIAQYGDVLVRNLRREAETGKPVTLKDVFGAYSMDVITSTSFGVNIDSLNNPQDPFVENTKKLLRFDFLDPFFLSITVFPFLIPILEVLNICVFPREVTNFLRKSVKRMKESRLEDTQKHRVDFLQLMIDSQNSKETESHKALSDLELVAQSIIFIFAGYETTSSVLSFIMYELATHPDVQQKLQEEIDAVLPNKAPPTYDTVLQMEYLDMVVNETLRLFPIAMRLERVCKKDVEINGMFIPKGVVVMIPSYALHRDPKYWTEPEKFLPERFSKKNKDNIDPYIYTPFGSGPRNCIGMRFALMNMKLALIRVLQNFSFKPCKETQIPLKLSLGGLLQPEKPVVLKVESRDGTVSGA

[19] = Luminescence Cell-Based Dose Confirmation HTS to Identify Activators of 5'UTR Stem-Loop Driven Alpha-Synuclein mRNA Translation in H4 Neuroglioblastoma Cells. [Related pubchem assays: 1829 (Project Summary), 1814 (Primary HTS)]; format: functional
[20] = Luminescence Cell-Based Dose Response HTS to Identify Activators of Luciferase Translation or Activity in H4 […] Cells. [Related pubchem assays: 1829 (Project Summary), 1814 (Primary HTS)]; format: functional
H4 = assay: Luminescence Cell-Based Dose Response HTS to Identify Activators of 5'UTR Stem-Loop Driven Prion Protein mRNA Translation in H4 Neuroglioblastoma Cells. [Related pubchem assays: 1829 (Project Summary), 1814 (Primary HTS)]; format: functional; conditions: Homo sapiens
[21] = HPDE-C7 pancreatic duct cell viability loss – fluorescence, HTS (AID 430); format: functional, cell-based; conditions: Homo sapiens
[22] = microbe, parasite or virus in culture; format: functional; conditions: Mycobacterium tuberculosis
[23] = viability loss of HPDE-C7K cells – cell-based, fluorescence, HTS, primary screen (AID 431); format: functional; conditions: Homo sapiens
[24] = target: T2, Microphthalmia-associated transcription factor (Homo sapiens, UniProt O75030); assay: reducers of TRPM1 reporter luminescence, concentration series – cell-based, SK-MEL-5, cherry-picked, set 3, MITF inhibitor project, dose response (AID 493073); format: functional;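 also: SK-MEL-5 melanoma cells with luciferase driven by the MITF target TRPM1 promoter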
T2 sequence (O75030 whole entry): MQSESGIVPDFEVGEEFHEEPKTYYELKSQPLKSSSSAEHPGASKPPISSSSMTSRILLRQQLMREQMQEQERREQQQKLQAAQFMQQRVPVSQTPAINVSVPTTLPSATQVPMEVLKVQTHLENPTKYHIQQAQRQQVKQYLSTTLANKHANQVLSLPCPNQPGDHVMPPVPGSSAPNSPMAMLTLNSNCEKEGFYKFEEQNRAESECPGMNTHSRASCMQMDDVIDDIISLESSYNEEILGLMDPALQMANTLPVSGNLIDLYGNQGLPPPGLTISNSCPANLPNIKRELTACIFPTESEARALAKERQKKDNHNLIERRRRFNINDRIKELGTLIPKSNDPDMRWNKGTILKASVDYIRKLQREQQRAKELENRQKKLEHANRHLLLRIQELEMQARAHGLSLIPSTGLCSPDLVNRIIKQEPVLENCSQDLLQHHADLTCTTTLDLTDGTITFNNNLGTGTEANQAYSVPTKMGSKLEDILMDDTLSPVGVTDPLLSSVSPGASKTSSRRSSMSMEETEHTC

Paired box protein Pax-8 = Paired box protein Pax-8 (Homo sapiens, UniProt Q06710); assay: PAX8 transcriptional activity inhibition in RMG-I – RMG-I cells, luciferase, cherry-pick, dose response (AID 687027); format: functional, cell-based;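 also: luciferase reporter driven by Pax8 target thyroperoxidase promoter measured by SteadyGlo luminescence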
Sequence of Paired box protein Pax-8 (Q06710 whole entry): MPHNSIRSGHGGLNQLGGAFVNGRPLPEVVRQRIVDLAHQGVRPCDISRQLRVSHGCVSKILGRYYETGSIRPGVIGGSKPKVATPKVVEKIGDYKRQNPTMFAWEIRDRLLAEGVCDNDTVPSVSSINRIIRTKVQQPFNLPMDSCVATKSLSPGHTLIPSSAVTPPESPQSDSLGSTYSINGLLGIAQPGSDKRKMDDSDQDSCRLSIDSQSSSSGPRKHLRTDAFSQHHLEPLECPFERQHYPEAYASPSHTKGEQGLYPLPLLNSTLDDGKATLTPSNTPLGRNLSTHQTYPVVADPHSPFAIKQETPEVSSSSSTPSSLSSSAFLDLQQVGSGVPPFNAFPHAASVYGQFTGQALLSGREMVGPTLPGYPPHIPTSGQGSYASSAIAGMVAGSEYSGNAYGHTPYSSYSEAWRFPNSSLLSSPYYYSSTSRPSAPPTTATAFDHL

Coagulation factor XII = target: T3, Coagulation factor XII (Homo sapiens, UniProt P00748); format: functional;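 also: activated factor XIIa alpha cleaving a fluorogenic AMC peptide substrate; inhibitor potency from loss of enzyme activity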
T3 sequence (P00748 whole entry): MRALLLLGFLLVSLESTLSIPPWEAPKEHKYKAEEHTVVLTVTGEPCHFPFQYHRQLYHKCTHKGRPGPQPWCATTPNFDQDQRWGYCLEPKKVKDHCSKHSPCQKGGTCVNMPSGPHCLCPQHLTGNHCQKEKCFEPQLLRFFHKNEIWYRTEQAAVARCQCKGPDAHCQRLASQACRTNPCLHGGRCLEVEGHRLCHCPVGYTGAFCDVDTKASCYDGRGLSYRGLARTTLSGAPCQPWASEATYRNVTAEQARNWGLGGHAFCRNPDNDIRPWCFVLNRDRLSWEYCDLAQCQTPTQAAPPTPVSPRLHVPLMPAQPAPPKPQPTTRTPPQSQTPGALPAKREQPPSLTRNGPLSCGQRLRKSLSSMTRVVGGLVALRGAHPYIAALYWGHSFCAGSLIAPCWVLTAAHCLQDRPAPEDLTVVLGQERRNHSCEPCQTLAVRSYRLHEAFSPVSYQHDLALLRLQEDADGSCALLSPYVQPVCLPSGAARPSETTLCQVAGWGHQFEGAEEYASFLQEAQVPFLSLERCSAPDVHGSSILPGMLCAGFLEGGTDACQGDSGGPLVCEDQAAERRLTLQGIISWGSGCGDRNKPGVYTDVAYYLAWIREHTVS

Bcl-2-related protein A1 = target: T4, Bcl-2-related protein A1 (Mus musculus, UniProt Q07440); format: functional;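 also: confirmatory dose–response counterscreen on Bfl-1, used to check hits from a UBC13 polyubiquitin inhibitor campaign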
T4 sequence (Q07440 whole entry): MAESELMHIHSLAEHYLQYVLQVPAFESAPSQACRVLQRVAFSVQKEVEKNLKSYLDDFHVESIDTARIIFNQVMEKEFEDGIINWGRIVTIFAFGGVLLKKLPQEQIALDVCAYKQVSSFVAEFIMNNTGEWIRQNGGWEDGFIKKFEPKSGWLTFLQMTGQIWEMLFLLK

[25] = target: T5, Ubiquitin-conjugating enzyme E2 N (Homo sapiens, UniProt P61088); format: functional
T5 sequence (P61088 whole entry): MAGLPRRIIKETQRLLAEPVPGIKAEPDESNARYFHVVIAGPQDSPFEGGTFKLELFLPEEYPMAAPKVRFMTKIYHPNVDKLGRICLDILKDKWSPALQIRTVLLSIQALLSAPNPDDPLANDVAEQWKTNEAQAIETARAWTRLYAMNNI

[26] = target: T5, Ubiquitin-conjugating enzyme E2 N; format: functional; remark: listed apart in the source
Large T antigen = Large T antigen (Simian virus 40, UniProt P03070); format: functional, Betapolyomavirus macacae;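 also: Confirmatory-stage PubChem screen for compounds that inhibit SV40 T antigen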
Sequence of Large T antigen (P03070 whole entry): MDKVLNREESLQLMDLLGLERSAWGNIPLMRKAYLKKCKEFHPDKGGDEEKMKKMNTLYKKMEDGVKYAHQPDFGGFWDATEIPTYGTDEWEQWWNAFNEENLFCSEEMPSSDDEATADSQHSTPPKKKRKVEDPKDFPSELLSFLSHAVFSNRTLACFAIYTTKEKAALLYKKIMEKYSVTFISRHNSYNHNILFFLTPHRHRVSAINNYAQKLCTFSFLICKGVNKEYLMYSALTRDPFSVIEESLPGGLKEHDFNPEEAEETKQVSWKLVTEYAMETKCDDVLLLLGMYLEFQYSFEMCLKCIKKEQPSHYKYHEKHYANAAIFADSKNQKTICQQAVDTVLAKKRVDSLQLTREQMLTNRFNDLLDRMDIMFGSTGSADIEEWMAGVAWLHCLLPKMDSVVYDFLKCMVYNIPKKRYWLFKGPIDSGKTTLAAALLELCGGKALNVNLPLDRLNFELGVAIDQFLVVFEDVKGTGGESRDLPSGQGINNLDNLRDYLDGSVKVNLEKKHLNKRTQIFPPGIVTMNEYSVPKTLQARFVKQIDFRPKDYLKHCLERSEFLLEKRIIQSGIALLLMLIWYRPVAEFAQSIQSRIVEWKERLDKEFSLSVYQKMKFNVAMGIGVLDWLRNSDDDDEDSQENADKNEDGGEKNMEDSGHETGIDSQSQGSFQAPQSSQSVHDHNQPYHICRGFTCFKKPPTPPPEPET

HEK293 [27] = assay: inhibition of NOD1-driven NF-kB reporter – cell-based, luminescence, uHTS, primary screen (AID 1578); format: functional; conditions: Homo sapiens
HEK293 [28] = assay: cells; format: functional, cell-based; conditions: Homo sapiens
HEK293 [29] = assay: cells; format: functional, cell-based; conditions: Homo sapiens; remark: listed apart in the source
[30] = target: Nucleotide-binding oligomerization domain-containing protein 2 (Homo sapiens, UniProt Q9HC29); assay: inhibition of NOD2-driven NF-kB reporter – cell-based, luminescence, uHTS, HEK293 (AID 1566); format: functional
Sequence of Nucleotide-binding oligomerization domain-containing protein 2 (Q9HC29 whole entry, the tested form may be a part): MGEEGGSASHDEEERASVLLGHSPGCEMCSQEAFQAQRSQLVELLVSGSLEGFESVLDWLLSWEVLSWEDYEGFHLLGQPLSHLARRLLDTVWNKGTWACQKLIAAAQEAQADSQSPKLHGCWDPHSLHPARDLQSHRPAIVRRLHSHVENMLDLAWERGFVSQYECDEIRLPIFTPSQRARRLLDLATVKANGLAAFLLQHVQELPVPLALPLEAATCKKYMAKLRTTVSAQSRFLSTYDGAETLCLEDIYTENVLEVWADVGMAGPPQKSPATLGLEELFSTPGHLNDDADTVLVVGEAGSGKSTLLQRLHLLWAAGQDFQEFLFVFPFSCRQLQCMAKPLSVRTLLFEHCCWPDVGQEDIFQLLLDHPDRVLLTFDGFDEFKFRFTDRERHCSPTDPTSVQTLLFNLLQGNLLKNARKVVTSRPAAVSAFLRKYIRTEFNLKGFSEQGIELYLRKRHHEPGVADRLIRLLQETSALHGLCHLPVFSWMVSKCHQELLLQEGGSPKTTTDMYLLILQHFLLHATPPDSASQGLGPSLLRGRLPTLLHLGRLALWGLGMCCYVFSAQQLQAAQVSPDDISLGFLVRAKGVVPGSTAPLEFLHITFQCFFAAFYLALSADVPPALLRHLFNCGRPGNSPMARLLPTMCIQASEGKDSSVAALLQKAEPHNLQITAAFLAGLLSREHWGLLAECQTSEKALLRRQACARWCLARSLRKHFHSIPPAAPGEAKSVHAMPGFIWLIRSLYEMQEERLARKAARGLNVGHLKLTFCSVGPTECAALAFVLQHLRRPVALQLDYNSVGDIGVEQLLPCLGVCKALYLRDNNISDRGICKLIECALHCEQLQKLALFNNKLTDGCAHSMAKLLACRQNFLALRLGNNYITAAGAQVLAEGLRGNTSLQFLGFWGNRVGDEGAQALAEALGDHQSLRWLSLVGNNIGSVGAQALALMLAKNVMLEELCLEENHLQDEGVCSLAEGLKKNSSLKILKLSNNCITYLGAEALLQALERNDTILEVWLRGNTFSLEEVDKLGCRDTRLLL

HEK293 [31] = assay: NOD2 signaling inhibitors in MDP-stimulated cells, cell-based, uHTS, luminescence (AID 2001); format: functional; conditions: Homo sapiens
HEK293 [32] = assay: cells; format: functional, cell-based; conditions: Homo sapiens; remark: listed apart in the source

Cn1c(/C=C/c2ccc([N+](=O)[O-])o2)nc2ccccc2c1=O
EC50 [1]: > 120 µM (not active)
EC50 (BJ [2]): 4.06 µM (active)
EC50 [3]: > 120 µM (not active)
EC50 [4]: > 120 µM (not active)
EC50 (BJ [5]): 3.51 µM (inconclusive)
EC50 [6]: < 0.059 µM (active)
EC50 [7]: < 0.059 µM (active)
EC50 (BJ [8]): 2.75 µM (inconclusive)
EC50 [9]: 3.02 µM (active)
CC50 [10]: 1.44 µM (active)
CC50 [11]: 2.67 µM (active)
CC50 [12]: 6.22 µM (active)
EC50 [13]: > 260 µM (inconclusive)
IC50 (cells): 0.78 µM (active)
AC50 [14]: 5 µM (active)
EC50 (BJ [15]): 1.35 µM (active)
AC50 (INS1): 2.55 µM (active)
AC50 [16]: 2.37 µM (active)
AC50 [17]: 10.6 µM (active)
AC50 [18]: 7 µM (active)
AC50 (Cytochrome P450 2D6): 17.8 µM (inconclusive)
AC50 (Cytochrome P450 3A4): 25.1 µM (inconclusive)

Nc1nnnn1/N=C/C(Br)=C/c1ccccc1
EC50 [19]: 17.4 µM (active)
EC50 [20]: > 120 µM (not active)
EC50 (BJ [2]): 5.12 µM (inconclusive)
EC50 (H4): > 120 µM (not active)
EC50 (BJ [5]): > 150 µM (inconclusive)
EC50 [21]: 2.37 µM (active)
CC50 [22]: 6.31 µM (active)
EC50 [23]: 2.94 µM (active)
EC50 (BJ [8]): > 38 µM (inconclusive)
EC50 [9]: 3.95 µM (active)
CC50 [10]: 5.96 µM (active)
CC50 [11]: 10 µM (active)
CC50 [12]: 5.79 µM (active)
AC50 [24]: 5.44 µM (active)
IC50 (cells): 5.76 µM (active)
AC50 (Paired box protein Pax-8): 1.36 µM (active)

CN(/N=C/c1ccc2c(c1)OCO2)c1nc(N2CCOCC2)nc(N2CCOCC2)n1
IC50 (Coagulation factor XII): > 50 µM (inactive)

COc1ccc(CN(C)C(=O)Cc2ccc(OC)c(S(=O)(=O)N3CCOCC3)c2)cc1OC
IC50 (Bcl-2-related protein A1): > 20 µM (inactive)
IC50 [25]: 12.6 µM (active)
IC50 [26]: 10.8 µM (active)

CCOC(=O)C[n+]1c(C)sc2ccc(OC)cc21
IC50 (Large T antigen): 22.1 µM (active)
IC50 (Coagulation factor XII): > 50 µM (inactive)
AC50 (Cytochrome P450 2D6): 12.6 µM (inconclusive)

O=C(N/N=C/c1ccc([N+](=O)[O-])o1)c1cc2ccccc2o1
EC50 [1]: > 120 µM (not active)
EC50 (HEK293 [27]): 7.3 µM (active)
EC50 (BJ [2]): 21.2 µM (active)
IC50 (HEK293 [28]): 16.1 µM (active)
EC50 [3]: > 60 µM (not active)
EC50 [4]: > 120 µM (not active)
EC50 (BJ [5]): 10.7 µM (active)
IC50 (HEK293 [29]): > 20 µM (inactive)
EC50 [30]: 10.5 µM (active)
IC50 (HEK293 [31]): 17.8 µM (inactive)
IC50 (HEK293 [32]): > 20 µM (inactive)
EC50 (BJ [8]): 14.1 µM (inconclusive)
EC50 [9]: 23.8 µM (active)
CC50 [10]: 22 µM (active)
CC50 [11]: 17 µM (active)
CC50 [12]: > 20 µM (active)
AC50 [24]: 5.99 µM (active)
IC50 (cells): 1.85 µM (active)
EC50 (BJ [15]): 4.63 µM (inconclusive)
AC50 (INS1): 2.63 µM (active)

Cc1sc2nc(C(C)Nc3ccccc3N3CCOCC3)[nH]c(=O)c2c1C (centres undefined)
IC50 (Bcl-2-related protein A1): > 20 µM (inactive)
IC50 [25]: 16.5 µM (active)
IC50 [26]: 9.08 µM (active)

COc1ccccc1CC(=O)NCc1csc(-c2cccs2)n1
IC50 (Coagulation factor XII): > 50 µM (inactive)

From ChEMBL document CHEMBL1201862, “PubChem BioAssay data set” (2004)
